Assay results as given in ChEMBL document CHEMBL1914295, “Synthesis and biological evaluation of some novel triazol-3-ones as antimicrobial agents” (2011).

Key:
Format in all cases: functional
Details in all cases: read-out: IZ
[1] = test system: Staphylococcus aureus; test: Antibacterial activity against Staphylococcus aureus at 200 ug/ml after 24 hrs by disc diffusion method
[2] = test system: Escherichia coli; test: Antibacterial activity against Escherichia coli at 200 ug/ml after 24 hrs by disc diffusion method
[3] = test system: Fusarium solani; test: Antifungal activity against Fusarium solani at 200 ug/ml after 48 hrs by disc diffusion method
[4] = test system: Aspergillus niger; test: Antifungal activity against Aspergillus niger at 100 ug/ml after 48 hrs by disc diffusion method
[5] = test system: Staphylococcus aureus; test: Antibacterial activity against Staphylococcus aureus at 100 ug/ml after 24 hrs by disc diffusion method
[6] = test system: Klebsiella pneumoniae; test: Antibacterial activity against Klebsiella pneumoniae at 200 ug/ml after 24 hrs by disc diffusion method
[7] = test system: Aspergillus niger; test: Antifungal activity against Aspergillus niger at 200 ug/ml after 48 hrs by disc diffusion method
[8] = test system: Klebsiella pneumoniae; test: Antibacterial activity against Klebsiella pneumoniae at 100 ug/ml after 24 hrs by disc diffusion method
[9] = test system: Bacillus subtilis; test: Antibacterial activity against Bacillus subtilis at 100 ug/ml after 24 hrs by disc diffusion method
[10] = test system: Bacillus subtilis; test: Antibacterial activity against Bacillus subtilis at 200 ug/ml after 24 hrs by disc diffusion method
[11] = test system: Escherichia coli; test: Antibacterial activity against Escherichia coli at 100 ug/ml after 24 hrs by disc diffusion method
[12] = test system: Candida albicans; test: Antifungal activity against Candida albicans at 200 ug/ml after 48 hrs by disc diffusion method
[13] = test system: Fusarium solani; test: Antifungal activity against Fusarium solani at 100 ug/ml after 48 hrs by disc diffusion method
[14] = test system: Candida albicans; test: Antifungal activity against Candida albicans at 100 ug/ml after 48 hrs by disc diffusion method

For CC1Sc2sccc2-c2nc(-n3cnn(C)c3=O)sc21 (stereo not drawn), the zone of inhibition at 200 µg/mL [1] was 16 mm, the zone of inhibition at 200 µg/mL [2] was 21 mm and the zone of inhibition at 200 µg/mL [3] was 26 mm. The zone of inhibition at 100 µg/mL [4] was 20 mm, the zone of inhibition at 100 µg/mL [5] was 14 mm and the zone of inhibition at 200 µg/mL [6] was 19 mm. It also gave a zone of inhibition at 200 µg/mL [7] of 23 mm, a zone of inhibition at 100 µg/mL [8] of 16 mm and a zone of inhibition at 100 µg/mL [9] of 16 mm. For the same molecule, the zone of inhibition at 200 µg/mL [10] was 19 mm, the zone of inhibition at 100 µg/mL [11] was 18 mm and the zone of inhibition at 200 µg/mL [12] was 24 mm. The zone of inhibition at 100 µg/mL [13] was 24 mm and the zone of inhibition at 100 µg/mL [14] was 22 mm.

With CCn1ncn(-c2nc3c(s2)C(C)Sc2sccc2-3)c1=O (stereo not drawn) the zone of inhibition at 200 µg/mL [1] was 29 mm, the zone of inhibition at 200 µg/mL [2] was 27 mm and the zone of inhibition at 200 µg/mL [3] was 31 mm. It also gave a zone of inhibition at 100 µg/mL [4] of 23 mm, a zone of inhibition at 100 µg/mL [5] of 25 mm and a zone of inhibition at 200 µg/mL [6] of 26 mm. For the same molecule, the zone of inhibition at 200 µg/mL [7] was 26 mm, the zone of inhibition at 100 µg/mL [8] was 24 mm and the zone of inhibition at 100 µg/mL [9] was 28 mm. The zone of inhibition at 200 µg/mL [10] was 31 mm, the zone of inhibition at 100 µg/mL [11] was 22 mm and the zone of inhibition at 200 µg/mL [12] was 29 mm. For the same molecule, the zone of inhibition at 100 µg/mL [13] was 28 mm and the zone of inhibition at 100 µg/mL [14] was 26 mm.

Molecule CC1Sc2sccc2-c2nc(-n3cnn(C(C)C)c3=O)sc21 (stereo not drawn) has a zone of inhibition at 200 µg/mL [1] of 16 mm, a zone of inhibition at 200 µg/mL [2] of 18 mm and a zone of inhibition at 200 µg/mL [3] of 19 mm. The zone of inhibition at 100 µg/mL [4] was 17 mm, the zone of inhibition at 100 µg/mL [5] was 14 mm and the zone of inhibition at 200 µg/mL [6] was 16 mm. The zone of inhibition at 200 µg/mL [7] was 22 mm, the zone of inhibition at 100 µg/mL [8] was 14 mm and the zone of inhibition at 100 µg/mL [9] was 13 mm. For the same molecule, the zone of inhibition at 200 µg/mL [10] was 15 mm, the zone of inhibition at 100 µg/mL [11] was 15 mm and the zone of inhibition at 200 µg/mL [12] was 21 mm. For the same molecule, the zone of inhibition at 100 µg/mL [13] was 17 mm and the zone of inhibition at 100 µg/mL [14] was 16 mm.

In the case of CC(C)Cn1ncn(-c2nc3c(s2)C(C)Sc2sccc2-3)c1=O (stereo not drawn), the zone of inhibition at 200 µg/mL [1] is reported as 15 mm, the zone of inhibition at 200 µg/mL [2] is reported as 14 mm and the zone of inhibition at 200 µg/mL [3] is reported as 20 mm. The zone of inhibition at 100 µg/mL [4] was 16 mm, the zone of inhibition at 100 µg/mL [5] was 12 mm and the zone of inhibition at 200 µg/mL [6] was 12 mm. The zone of inhibition at 200 µg/mL [7] was 18 mm, the zone of inhibition at 100 µg/mL [8] was 10 mm and the zone of inhibition at 100 µg/mL [9] was 13 mm. For the same molecule, the zone of inhibition at 200 µg/mL [10] was 16 mm, the zone of inhibition at 100 µg/mL [11] was 12 mm and the zone of inhibition at 200 µg/mL [12] was 21 mm. For the same molecule, the zone of inhibition at 100 µg/mL [13] was 16 mm and the zone of inhibition at 100 µg/mL [14] was 17 mm.

CC1Sc2sccc2-c2nc(-n3cnn(CC#N)c3=O)sc21 (stereo not drawn) showed a zone of inhibition at 200 µg/mL [1] of 17 mm, a zone of inhibition at 200 µg/mL [2] of 13 mm and a zone of inhibition at 200 µg/mL [3] of 18 mm. It also gave a zone of inhibition at 100 µg/mL [4] of 16 mm, a zone of inhibition at 100 µg/mL [5] of 13 mm and a zone of inhibition at 200 µg/mL [6] of 14 mm. It also gave a zone of inhibition at 200 µg/mL [7] of 19 mm, a zone of inhibition at 100 µg/mL [8] of 11 mm and a zone of inhibition at 100 µg/mL [9] of 15 mm. The zone of inhibition at 200 µg/mL [10] was 18 mm, the zone of inhibition at 100 µg/mL [11] was 11 mm and the zone of inhibition at 200 µg/mL [12] was 18 mm. The zone of inhibition at 100 µg/mL [13] was 15 mm and the zone of inhibition at 100 µg/mL [14] was 14 mm.

COCCCn1ncn(-c2nc3c(s2)C(C)Sc2sccc2-3)c1=O (stereo not drawn) showed a zone of inhibition at 200 µg/mL [1] of 28 mm, a zone of inhibition at 200 µg/mL [2] of 25 mm and a zone of inhibition at 200 µg/mL [3] of 44 mm. For the same molecule, the zone of inhibition at 100 µg/mL [4] was 37 mm, the zone of inhibition at 100 µg/mL [5] was 23 mm and the zone of inhibition at 200 µg/mL [6] was 24 mm. For the same molecule, the zone of inhibition at 200 µg/mL [7] was 41 mm, the zone of inhibition at 100 µg/mL [8] was 21 mm and the zone of inhibition at 100 µg/mL [9] was 31 mm. For the same molecule, the zone of inhibition at 200 µg/mL [10] was 33 mm, the zone of inhibition at 100 µg/mL [11] was 22 mm and the zone of inhibition at 200 µg/mL [12] was 39 mm. It also gave a zone of inhibition at 100 µg/mL [13] of 39 mm and a zone of inhibition at 100 µg/mL [14] of 36 mm.

With O=C(N[C@H](CO)[C@H](O)c1ccc([N+](=O)[O-])cc1)C(Cl)Cl [CHLORAMPHENICOL] the zone of inhibition at 200 µg/mL [1] was 39 mm, the zone of inhibition at 200 µg/mL [2] was 44 mm and the zone of inhibition at 100 µg/mL [5] was 35 mm. It also gave a zone of inhibition at 200 µg/mL [6] of 45 mm, a zone of inhibition at 100 µg/mL [8] of 42 mm and a zone of inhibition at 100 µg/mL [9] of 38 mm. It also gave a zone of inhibition at 200 µg/mL [10] of 41 mm and a zone of inhibition at 100 µg/mL [11] of 40 mm.

CC(=O)N1CCN(c2ccc(OCC3COC(Cn4ccnc4)(c4ccc(Cl)cc4Cl)O3)cc2)CC1 (stereo not drawn) [KETOCONAZOLE] was tested, and the zone of inhibition at 200 µg/mL [3] was 42 mm, the zone of inhibition at 100 µg/mL [4] was 41 mm and the zone of inhibition at 200 µg/mL [7] was 44 mm. The zone of inhibition at 200 µg/mL [12] was 39 mm, the zone of inhibition at 100 µg/mL [13] was 38 mm and the zone of inhibition at 100 µg/mL [14] was 36 mm.
